From US20250352658A1, “COMBINATION THERAPY USING ANTIBODY-DRUG CONJUGATES” (ADC THERAPEUTICS SA, priority 2021, published 2025)

Tests used:
TMD8 cells = assay: CellTiterGlo viability assay, SG3199 and MMAE combination, TMD8; format: cell-based; settings: 24 hours
Description: We tested a combination of the warheads alone used in CD19xADC (PBD SG3199) and CD79bxADC (monomethyl auristatin E (MMAE)). This was performed essentially as per Example 1, in TMD8 cells. Cells were seeded at a density of 50,000 cells/mL. […]
Cells were incubated for 24 hours and then viability was measured with CellTiterGlo assay.
For analysis of the results, data were first blank corrected (average of blank of the 3 replicates was subtracted from each data value). For GraphPad analysis, each replicate was normalized over the untreated cells (average of the 3 replicates). Data were analysed by GraphPad Prism to generate a dose response curve with Log drug concentration on X-axis and cell viability (%) on Y-axis. For CalcuSyn analysis, the average of the 3 replicates was corrected over the untreated cells.

WSU-DLCL2 xenograft = assay: In vivo efficacy, WSU-DLCL2 xenograft model; design: species or system mice
Description: Female severe combined immunodeficient mice (Fox Chase SCID®, CB17/Icr-Prkdc^scid/IcrIcoCrl, Charles River) were nine weeks old with a body weight (BW) range of 17.3 to 24.1 g on Day 1 of the study.
On the day of implant, 1×10^7 WSU-DLCL2 cells (0.1 mL suspension) were subcutaneously implanted into the right flank of each test animal and tumors were monitored as their volumes approached the target range.
Ten days after tumor implantation, designated as Day 1 of the study, the animals were sorted into groups (n=10) with individual tumor volumes of 88 to 126 mm^3 and group mean tumor volumes of 109 to 111 mm^3.
(§1) All vehicle and ADC doses were administered i.v. via tail vein injection once on Day 1 (qd×1). The dosing volume was 0.2 mL per 20 grams of body weight (10 mL/kg) and was scaled to the body weight of each individual animal.
(§2) Tumors were measured using calipers twice per week, and each animal was euthanized when its tumor reached the endpoint volume of 1000 mm^3 or at the end of the study, whichever came first. The study ended on Day 62.
Tumors were measured in two dimensions using calipers, and volume was calculated using the formula
Tumor Volume (mm^3)=w^2×l/2, where w=width and l=length, in mm, of the tumor.
Tumor weight may be estimated with the assumption that 1 mg is equivalent to 1 mm^3 of tumor volume.

Ramos xenograft = assay: In vivo efficacy, Ramos xenograft model; design: species or system mice
Description: A further in vivo study was conducted, similar to Example 2 but using a Ramos xenograft model.
Female severe combined immunodeficient mice (Fox Chase SCID®, CB17/Icr-Prkdc^scid/IcrIcoCrl, Charles River) were eight weeks old with a body weight (BW) range of 15.6 to 22.9 g on Day 1 of the study.
as §1, with “On the day of implant, 1×10^7 Ramos cells (0.1 mL suspension) were subcutaneously implanted into the right flank of each test animal and tumors were monitored as their volumes approached the target range. All” for “All”
Fourteen days after tumor implantation, designated as Day 1 of the study, the animals were sorted into groups (n=10) with individual tumor volumes of 108 to 144 mm^3 and group mean tumor volumes of 130 to 134 mm^3.
as §2

[1] = CD19xADC 0.25 mg/kg i.v. once on Day 1, n=10
[2] = CD19xADC 0.5 mg/kg i.v. once on Day 1, n=10
[3] = CD19xADC 0.3 mg/kg i.v. once on Day 1, n=10
[4] = CD19xADC 0.6 mg/kg i.v. once on Day 1, n=10

| Compound | Fa (fraction affected) (TMD8 cells; SG3199 0.06 pM alone (MMAE 0)) | Fa (fraction affected) (TMD8 cells; SG3199 0.23 pM alone (MMAE 0)) | Fa (fraction affected) (TMD8 cells; SG3199 0.90 pM alone (MMAE 0)) | Fa (fraction affected) (TMD8 cells; SG3199 3.6 pM alone (MMAE 0)) | Fa (fraction affected) (TMD8 cells; SG3199 14.4 pM alone (MMAE 0)) | Fa (fraction affected) (TMD8 cells; SG3199 57.5 pM alone (MMAE 0)) | Fa (fraction affected) (TMD8 cells; SG3199 230 pM alone (MMAE 0)) | CR (complete response) (WSU-DLCL2 xenograft; [1]) | PR (partial response) (WSU-DLCL2 xenograft; [1]) | TFS (tumour free survivor) (WSU-DLCL2 xenograft; [1]) | CR (complete response) (WSU-DLCL2 xenograft; [2]) | PR (partial response) (WSU-DLCL2 xenograft; [2]) | TFS (tumour free survivor) (WSU-DLCL2 xenograft; [2]) | CR (complete response) (Ramos xenograft; [3]) | PR (partial response) (Ramos xenograft; [3]) | TFS (tumour free survivor) (Ramos xenograft; [3]) | CR (complete response) (Ramos xenograft; [4]) | PR (partial response) (Ramos xenograft; [4]) | TFS (tumour free survivor) (Ramos xenograft; [4]) |
| --- | --- | --- | --- | --- | --- | --- | --- | --- | --- | --- | --- | --- | --- | --- | --- | --- | --- | --- | --- |
| COc1cc2c(cc1OCCCCCOc1cc3c(cc1OC)C(=O)N1C=C(C)C[C@H]1C=N3)N=C[C@@H]1CC(C)=CN1C2=O [SG3199, reference compound] | 0.12 | 0.16 | 0.15 | 0.15 | 0.19 | 0.23 | 0.46 |  |  |  |  |  |  |  |  |  |  |  |  |
| CD19xADC: anti-CD19 ADC; Loncastuximab tesirine is the CD19xADC used |  |  |  |  |  |  |  | 0 | 3 | 0 | 5 | 2 | 3 | 0 | 0 | 0 | 7 | 0 | 7 |
